Results published in PubChem BioAssay AID1259407 (Chemical Carcinogenesis Research Information System (CCRIS), 2018).
Calls of active or inactive are those of the source. How the calls were made is not given here.

Tested on: CCRIS mutagenicity, Ames/micronucleus/aberration tests
Experiment: CCRIS mutagenicity studies
[1] = Test System: AMES SALMONELLA TYPHIMURIUM, Strain/Indicator: TA98, Metabolic Activation: NONE, Method: STANDARD PLATE
[2] = Test System: AMES SALMONELLA TYPHIMURIUM, Strain/Indicator: TA98, Metabolic Activation: RAT, LIVER, S-9, AROCLOR 1254, Method: STANDARD PLATE
[3] = Test System: AMES SALMONELLA TYPHIMURIUM, Strain/Indicator: TA100, Metabolic Activation: NONE, Method: STANDARD PLATE
[4] = Test System: AMES SALMONELLA TYPHIMURIUM, Strain/Indicator: TA100, Metabolic Activation: RAT, LIVER, S-9, AROCLOR 1254, Method: STANDARD PLATE

In the case of `CCOC(=O)CC(=O)CCl`, the mutagenic call (Test System: AMES SALMONELLA TYPHIMURIUM, Strain/Indicator: TA98, Metabolic Activation: HAMSTER, LIVER, S-9, AROCLOR 1254, Method: STANDARD PLATE) is reported as “inactive; negative”, the mutagenic call [1] is reported as “inactive; negative” and the mutagenic call [2] is reported as “inactive; negative”. For the same molecule, the mutagenic call (Test System: AMES SALMONELLA TYPHIMURIUM, Strain/Indicator: TA100, Metabolic Activation: HAMSTER, LIVER, S-9, AROCLOR 1254, Method: STANDARD PLATE) was “inactive; negative”, the mutagenic call [3] was “inactive; negative” and the mutagenic call [4] was “inactive; negative”. For the same molecule, the mutagenic call (Test System: AMES SALMONELLA TYPHIMURIUM, Strain/Indicator: TA1535, Metabolic Activation: HAMSTER, LIVER, S-9, AROCLOR 1254, Method: STANDARD PLATE) was “inactive; negative”, the mutagenic call (Test System: AMES SALMONELLA TYPHIMURIUM, Strain/Indicator: TA1535, Metabolic Activation: NONE, Method: STANDARD PLATE) was “inactive; negative” and the mutagenic call (Test System: AMES SALMONELLA TYPHIMURIUM, Strain/Indicator: TA1535, Metabolic Activation: RAT, LIVER, S-9, AROCLOR 1254, Method: STANDARD PLATE) was “inactive; negative”. For the same molecule, the mutagenic call (Test System: AMES SALMONELLA TYPHIMURIUM, Strain/Indicator: TA1537, Metabolic Activation: HAMSTER, LIVER, S-9, AROCLOR 1254, Method: STANDARD PLATE) was “inactive; negative”, the mutagenic call (Test System: AMES SALMONELLA TYPHIMURIUM, Strain/Indicator: TA1537, Metabolic Activation: NONE, Method: STANDARD PLATE) was “inactive; negative” and the mutagenic call (Test System: AMES SALMONELLA TYPHIMURIUM, Strain/Indicator: TA1537, Metabolic Activation: RAT, LIVER, S-9, AROCLOR 1254, Method: STANDARD PLATE) was “inactive; negative”. For the same molecule, the mutagenic call (Test System: AMES SALMONELLA TYPHIMURIUM, Strain/Indicator: TA1538, Metabolic Activation: HAMSTER, LIVER, S-9, AROCLOR 1254, Method: STANDARD PLATE) was “inactive; negative”, the mutagenic call (Test System: AMES SALMONELLA TYPHIMURIUM, Strain/Indicator: TA1538, Metabolic Activation: NONE, Method: STANDARD PLATE) was “inactive; negative” and the mutagenic call (Test System: AMES SALMONELLA TYPHIMURIUM, Strain/Indicator: TA1538, Metabolic Activation: RAT, LIVER, S-9, AROCLOR 1254, Method: STANDARD PLATE) was “inactive; negative”. The mutagenic call (Test System: MOUSE LYMPHOMA, Strain/Indicator: L5178Y (TK+/TK-), Metabolic Activation: NONE, Method: SUSPENSION/PLATE) was “active; positive. reevaluation of results: positive” and the mutagenic call (Test System: MOUSE LYMPHOMA, Strain/Indicator: L5178Y (TK+/TK-), Metabolic Activation: RAT, LIVER, S-9, AROCLOR 1254, Method: SUSPENSION/PLATE) was “active; positive. reevaluation of results: positive”.

For `CC(=O)N(O)c1ccc(Br)cc1`, the mutagenic call [1] was “inactive; negative”, the mutagenic call [2] was “inactive; negative” and the mutagenic call [3] was “inactive; negative”. For the same molecule, the mutagenic call [4] was “inactive; negative”.
